Reference: patent publication US20200115357A1, “LIVER X RECEPTORS (LXR) MODULATORS” (Phenex-FXR GmbH, priority 2017, published 2020)

Key:
[1] = biological target: T1, LXRβ full length (FL) (Homo sapiens, UniProt P55055, DUP175-175); experiment: LXR Gal4 reporter transient transfection assay (M2H), Gal4β FL; assay type: cell-based; conditions: HEK293 cells; read-out: M2H Gal4β FL activity range (EC50)
T1 construct: the full length (FL) proteins of LXRα (amino acids 1-447); NP005684; NP009052; expressed in transfected cells; host or cells: HEK293
T1 sequence (P55055 with tags, fused parts or gaps DUP175-175): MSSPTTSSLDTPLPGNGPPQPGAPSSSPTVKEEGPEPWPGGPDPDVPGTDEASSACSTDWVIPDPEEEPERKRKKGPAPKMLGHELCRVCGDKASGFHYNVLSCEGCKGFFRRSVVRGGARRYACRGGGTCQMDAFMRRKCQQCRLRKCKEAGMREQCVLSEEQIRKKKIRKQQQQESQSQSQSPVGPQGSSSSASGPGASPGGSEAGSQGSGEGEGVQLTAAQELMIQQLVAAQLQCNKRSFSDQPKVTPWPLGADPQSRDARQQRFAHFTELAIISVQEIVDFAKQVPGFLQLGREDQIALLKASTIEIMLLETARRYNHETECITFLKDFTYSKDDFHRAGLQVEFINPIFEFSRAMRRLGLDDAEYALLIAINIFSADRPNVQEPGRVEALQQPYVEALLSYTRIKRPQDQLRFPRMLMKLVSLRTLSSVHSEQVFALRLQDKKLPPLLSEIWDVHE
Experimental: (§1) The tested compounds were usually dissolved, tested and stored as 20 mM stock solutions in DMSO. Since sulfonyl acetic acid derivatives tend to decarboxylate under these conditions, these stock solutions were prepared, tested and stored as 20 mM DMSO stock solutions containing 100 mM trifluoroacetic acid (5 equivalents). Sulfonyl acetic acid derivatives are shelf stable as solid at rt for long time as reported by Griesbrecht et al. (Synlett 2010:374) or Faucher et al. (J. Med. Chem. 2004; 47:18).
(§2) LXR Gal4 Reporter Transient Transfection Assays
(§3) LXRα and LXRβ activity status was determined via detection of interaction with coactivator and corepressor proteins in mammalian two-hybrid experiments (M2H). For this, via transient transfection the full length (FL) proteins of LXRα (amino acids 1-447; NP005684; SEQ ID NO:7) or LXRβ-(amino acids 1-461; NP009052; SEQ ID NO:8) or the ligand-binding domains (LBD) of LXRα (amino acids 155-447 SEQ ID NO:3) or LXRβ (amino acids 156-461; SEQ ID NO:4) were expressed from pCMV-AD (Stratagene) as fusions to the transcriptional activation domain of NFkB. As cofactors, domains of either the steroid receptor coactivator 1 (SRC1; amino acids 552-887; SEQ ID NO:5) or of the corepressor NCoR (amino acids 1903-2312 SEQ ID NO:6) were expressed as fusions to the DNA binding domain of the yeast transcription factor GAL4 (from pCMV-BD; Stratagene). Interaction was monitored via activation of a coexpressed Firefly Luciferase Reporter gene under control of a promoter containing repetitive GAL4 response elements (vector pFRLuc; Stratagene). Transfection efficiency was controlled via cotransfection of constitutively active pRL-CMV Renilla reniformis luciferase reporter (Promega). HEK293 cells were grown in minimum essential medium (MEM) with 2 mM L-glutamine and Earle's balanced salt solution supplemented with 8.3% fetal bovine serum, 0.1 mM non-essential amino acids, 1 mM sodium pyruvate, at 37° C. in 5% CO2. 3.5×10^4 cells/well were plated in 96-well cell culture plates in growth medium supplemented with 8.3% fetal bovine serum for 16-20 h to ˜90% confluency. For transfection, medium was taken off and LXR and cofactor expressing plasmids as well as the reporter plasmids are added in 30 μL OPTIMEM/well including polyethylene-imine (PEI) as vehicle. Typical amounts of plasmids transfected/well: pCMV-AD-LXR (5 ng), pCMV-BD-cofactor (5 ng), pFR-Luc (100 ng), pRL-CMV (0.5 ng). Compound stocks were prepared in DMSO, prediluted in MEM to a total volume of 120 μL, and added 4 h after addition of the transfection mixture (final vehicle concentration not exceeding 0.2%). Cells were incubated for additional 16 h, lysed for 10 min in 1× Passive Lysis Buffer (Promega) and Firefly and Renilla luciferase activities were measured sequentially in the same cell extract using buffers containing D-luciferine and coelenterazine, respectively. Measurements of luminescence were done in a BMG-Iuminometer.

[2] = biological target: T2, LXRα full length (FL) (Homo sapiens, UniProt Q13133); experiment: LXR Gal4 reporter transient transfection assay (M2H), Gal4α FL; assay type: cell-based; conditions: HEK293 cells; for EC50: read-out: M2H Gal4α FL activity range (EC50)
T2 construct: the full length (FL) proteins of LXRα (amino acids 1-447); NP005684; expressed in transfected cells; host or cells: HEK293
T2 sequence (Q13133 1-447): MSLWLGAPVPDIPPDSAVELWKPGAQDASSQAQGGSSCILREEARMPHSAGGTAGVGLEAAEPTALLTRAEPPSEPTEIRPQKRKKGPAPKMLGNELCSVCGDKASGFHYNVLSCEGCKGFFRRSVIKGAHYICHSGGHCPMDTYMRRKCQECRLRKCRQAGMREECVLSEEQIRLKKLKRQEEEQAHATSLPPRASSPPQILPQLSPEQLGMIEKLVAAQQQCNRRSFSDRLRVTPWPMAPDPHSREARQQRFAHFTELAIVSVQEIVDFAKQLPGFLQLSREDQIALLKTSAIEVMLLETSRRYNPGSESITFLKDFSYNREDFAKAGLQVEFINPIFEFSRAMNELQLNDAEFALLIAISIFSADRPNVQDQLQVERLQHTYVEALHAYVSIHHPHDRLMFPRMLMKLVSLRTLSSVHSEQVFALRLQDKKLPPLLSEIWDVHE
Experimental: as §1, §2, §3

[3] = biological target: T3, GST-LXRβ ligand-binding domain (Homo sapiens, UniProt P55055, DUP175-175); experiment: TR-FRETβ activity assay (LXRβ-LBD / NCoA3 coactivator peptide, prestimulated with 24(S)-25-epoxycholesterol); assay type: biochemical; parameters: key to behavior in FRET assay: ag=agonist; ia=inverse agonist; conditions: for EC50: read-out: FRETβ activity range (EC50); for behavior in FRET assay: agonist or inverse agonist
T3 construct: amino acids 156-461; NP009052; made in house; host or cells: E. coli
T3 sequence (P55055 with tags, fused parts or gaps DUP175-175): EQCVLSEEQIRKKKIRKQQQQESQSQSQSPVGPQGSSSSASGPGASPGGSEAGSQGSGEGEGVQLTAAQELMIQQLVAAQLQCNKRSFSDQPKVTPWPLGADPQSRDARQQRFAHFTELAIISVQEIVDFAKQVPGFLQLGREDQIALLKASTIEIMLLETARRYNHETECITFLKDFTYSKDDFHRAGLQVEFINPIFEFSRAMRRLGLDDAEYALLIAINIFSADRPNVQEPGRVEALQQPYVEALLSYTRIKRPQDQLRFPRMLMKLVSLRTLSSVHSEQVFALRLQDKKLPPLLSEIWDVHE
Experimental: The tested compounds were usually dissolved, tested and stored as 20 mM stock solutions in DMSO. […] Sulfonyl acetic acid derivatives are shelf stable as solid at rt for long time as reported by Griesbrecht et al. (Synlett 2010:374) or Faucher et al. (J. Med. Chem. 2004; 47:18). TR-FRETβ Activity Assay Recombinant GST-LXRβ ligand-binding domain (LBD; amino acids 156-461; NP009052; SEQ ID NO:2) was expressed in E. coli and purified via gluthatione-sepharose affinity chromatography. N-terminally biotinylated NCoA3 coactivator peptide (SEQ ID NO:1) was chemically synthesized (Eurogentec). […] Finally, a detection mix was added containing anti GST-Tb cryptate (CisBio; 610SAXLB) and Streptavidin-XL665 (CisBio; 610SAXLB) as fluorescent donor and acceptor, respectively, as well as the coactivator peptide and LXRβ-LBD protein (SEQ ID NO:2). The reaction was mixed thoroughly, equilibrated for 1 h at 4° C. and vicinity of LXRβ and coactivator peptide was detected by measurement of fluorescence in a VictorX4 multiplate reader (PerkinElmer Life Science) using 340 nm as excitation and 615 and 665 nm as emission wavelengths. Assays were performed in triplicates. Final Assay Concentrations of Components: 240 mM KCl, 1 μg/μL BSA, 0.002% Triton-X-100, […] anti GST-Tb cryptate, 2.5 ng/μL Streptavidin-XL665, coactivator peptide (400 nM), LXRβ protein ([…], i.e. 76 nM)

[4] = 1 μM 24(S)-25-epoxycholesterol as prestimulating agonist

Cc1cc(C)c(S(=O)(=O)N(Cc2ccc(-c3cccc(S(=O)(=O)CC(=O)O)c3)cc2)Cc2ccc(F)cc2Cl)c(C)c1 [11/11]
EC50 [1]: 100 to 1000 nM | EC50 [2]: 1000 to 10000 nM | EC50 [3, 4]: 100 to 1000 nM | behavior in FRET assay [3]: ag

Cc1ccc2cccnc2c1S(=O)(=O)N(Cc1ccc(-c2cccc(S(=O)(=O)CC(=O)O)c2)cc1)Cc1ccc(C(F)(F)F)o1 [10/11]
EC50 [1]: 100 to 1000 nM | EC50 [2]: 1000 to 10000 nM | EC50 [3, 4]: 1000 to 10000 nM | behavior in FRET assay [3]: ag

O=C(O)CS(=O)(=O)c1cccc(-c2ccc(CN(Cc3ccc(C(F)(F)F)o3)S(=O)(=O)c3c(Cl)cccc3C(F)(F)F)cc2)c1 [10/3]
EC50 [1]: 100 to 1000 nM | EC50 [2]: 1000 to 10000 nM | EC50 [3, 4]: 1000 to 10000 nM | behavior in FRET assay [3]: ag

O=C(O)CS(=O)(=O)c1cccc(-c2ccc(CN(Cc3ccc(C(F)(F)F)o3)S(=O)(=O)c3c(Cl)cccc3Cl)cc2)c1 [Example 10/1]
EC50 [1]: 100 to 1000 nM | M2H Gal4α FL activity range (EC50) [2]: inactive | EC50 [3, 4]: 1000 to 10000 nM | behavior in FRET assay [3]: ag

Cc1ccc2cccnc2c1S(=O)(=O)N(Cc1ccc(-c2cccc(C(C)(C)C(=O)NS(C)(=O)=O)c2)cc1)Cc1ccc(C(F)(F)F)o1 [Example 29, 2-Methyl-2-(4′-(((7-methyl-N-((5-(trifluoromethyl)furan-2-yl)methyl)quinoline)-8-sulfon-amido)methyl)-[1,1′-biphenyl]-3-yl)-N-(methylsulfonyl)propanamide]
EC50 [1]: 100 to 1000 nM | EC50 [2]: 100 to 1000 nM | FRETβ activity range (EC50) [3, 4]: inactive

Cc1ccc2ccccc2c1S(=O)(=O)N(Cc1ccc(-c2cccc(S(=O)(=O)CC(=O)O)c2)cc1)Cc1ccc(C#N)o1 [Example 5/7]
EC50 [1]: 100 to 1000 nM | EC50 [2]: 100 to 1000 nM | EC50 [3, 4]: 1000 to 10000 nM | behavior in FRET assay [3]: ia
